Reference: ChEMBL document CHEMBL1136754, “Mechanism of action of the diazabicyclononanone-type kappa-agonists” (J Med Chem, 2003)

Assays:
Type in all cases: tissue-based
[1] = molecular target: Mu-type opioid receptor (Rattus norvegicus, UniProt P33535); experiment: Binding affinity towards Opioid receptor mu 1 using [3H]naloxone as radioligand in rat brain
[2] = molecular target: Delta-type opioid receptor (Rattus norvegicus, UniProt P33533); experiment: Binding affinity towards Opioid receptor delta 1 using [3H]CI-DPDPE as radioligand in rat brain
[3] = molecular target: Kappa-type opioid receptor (Rattus norvegicus, UniProt P34975); experiment: Binding affinity towards KOR (Opioid receptor kappa 1) using [3H]CI977 as radioligand in rat brain
Sequence of Kappa-type opioid receptor (P34975 whole entry): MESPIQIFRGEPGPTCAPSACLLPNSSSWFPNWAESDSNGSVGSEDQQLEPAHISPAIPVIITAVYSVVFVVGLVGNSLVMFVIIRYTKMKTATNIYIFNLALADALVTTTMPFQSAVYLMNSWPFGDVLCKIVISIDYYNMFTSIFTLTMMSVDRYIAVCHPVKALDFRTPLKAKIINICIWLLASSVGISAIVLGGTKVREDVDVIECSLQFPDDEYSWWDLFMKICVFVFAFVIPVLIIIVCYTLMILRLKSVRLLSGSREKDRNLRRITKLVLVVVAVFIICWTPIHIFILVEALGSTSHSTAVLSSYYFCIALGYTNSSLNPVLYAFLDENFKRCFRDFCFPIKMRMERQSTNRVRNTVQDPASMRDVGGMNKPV

Sequence of Delta-type opioid receptor (P33533 whole entry): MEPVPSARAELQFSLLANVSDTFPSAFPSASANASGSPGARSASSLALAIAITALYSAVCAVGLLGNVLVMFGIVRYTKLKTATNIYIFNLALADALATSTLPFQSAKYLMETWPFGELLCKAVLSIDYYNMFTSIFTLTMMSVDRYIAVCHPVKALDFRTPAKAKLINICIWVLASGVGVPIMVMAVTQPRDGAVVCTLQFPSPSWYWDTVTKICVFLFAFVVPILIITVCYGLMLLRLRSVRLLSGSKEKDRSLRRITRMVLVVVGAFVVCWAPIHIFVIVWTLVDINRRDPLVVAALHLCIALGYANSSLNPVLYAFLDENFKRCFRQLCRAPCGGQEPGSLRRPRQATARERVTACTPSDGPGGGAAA
Sequence of Mu-type opioid receptor (P33535 whole entry): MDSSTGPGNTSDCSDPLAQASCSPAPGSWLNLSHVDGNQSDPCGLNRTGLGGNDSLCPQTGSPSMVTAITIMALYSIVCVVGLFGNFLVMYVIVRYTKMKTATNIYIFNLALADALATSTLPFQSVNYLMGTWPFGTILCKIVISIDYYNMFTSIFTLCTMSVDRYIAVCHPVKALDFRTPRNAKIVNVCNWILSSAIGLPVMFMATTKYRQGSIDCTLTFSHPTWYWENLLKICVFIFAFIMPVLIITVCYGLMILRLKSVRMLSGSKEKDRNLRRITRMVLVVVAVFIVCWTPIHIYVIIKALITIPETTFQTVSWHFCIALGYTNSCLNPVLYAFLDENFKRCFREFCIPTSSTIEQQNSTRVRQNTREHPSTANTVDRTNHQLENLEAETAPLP

In the case of `CN1CC2C(=O)C(C1)C(c1ccccn1)N(C)C2c1ccccn1` (stereo not drawn), the Ki [1] is reported as greater than 1 µM, the Ki [2] is reported as greater than 10 µM and the Ki [3] is reported as 0.015 µM.
